From PubChem BioAssay (NCI)
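Five compound concentrations were applied to cells in 96-well plates for 48 hours; endpoints were derived by simple linear interpolation of the resulting dose-response curve. At the GI50, growth is halved. TGI denotes the concentration required for complete inhibition of growth.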

Key:
Test in all cases: NCI anticancer screen, dose series, 48 h
UACC-62 melanoma = tested on: UACC-62 melanoma
SK-MEL-5 melanoma = tested on: SK-MEL-5 melanoma
SF-295 CNS = tested on: SF-295 CNS
HCT-15 colon = tested on: HCT-15 colon
SR leukemia = tested on: SR leukemia
EKVX NSCLC = tested on: EKVX NSCLC
IGROV1 ovarian = tested on: IGROV1 ovarian
OVCAR-8 ovarian = tested on: OVCAR-8 ovarian
CAKI-1 renal = tested on: CAKI-1 renal
CCRF-CEM leukemia = tested on: CCRF-CEM leukemia
T-47D breast = tested on: T-47D breast
NCI-H522 lung = tested on: NCI-H522 lung
SF-268 CNS = tested on: SF-268 CNS
MALME-3M melanoma = tested on: MALME-3M melanoma
MDA-MB-231 breast = tested on: MDA-MB-231 breast
U251 CNS = tested on: U251 CNS
HL-60(TB) leukemia = tested on: HL-60(TB) leukemia
HCT-116 colon = tested on: HCT-116 colon
786-0 renal = tested on: 786-0 renal
NCI-H226 lung = tested on: NCI-H226 lung
SK-OV-3 ovarian = tested on: SK-OV-3 ovarian
TK-10 renal = tested on: TK-10 renal
SW-620 colon = tested on: SW-620 colon
SK-MEL-2 melanoma = tested on: SK-MEL-2 melanoma
DU-145 prostate = tested on: DU-145 prostate
A549 NSCLC = tested on: A549 NSCLC
ACHN renal = tested on: ACHN renal
SN12C renal = tested on: SN12C renal
RXF 393 renal = tested on: RXF 393 renal
NCI-H460 lung = tested on: NCI-H460 lung
OVCAR-5 ovarian = tested on: OVCAR-5 ovarian
OVCAR-3 ovarian = tested on: OVCAR-3 ovarian
BT-549 breast = tested on: BT-549 breast
HT29 colon = tested on: HT29 colon
SK-MEL-28 melanoma = tested on: SK-MEL-28 melanoma
SNB-75 CNS = tested on: SNB-75 CNS
K-562 leukemia = tested on: K-562 leukemia
SF-539 CNS = tested on: SF-539 CNS
HS 578T breast = tested on: HS 578T breast
SNB-19 CNS = tested on: SNB-19 CNS
HOP-62 NSCLC = tested on: HOP-62 NSCLC
MCF7 breast = tested on: MCF7 breast
MDA-MB-435 = tested on: MDA-MB-435
UACC-257 melanoma = tested on: UACC-257 melanoma
LOX IMVI melanoma = tested on: LOX IMVI melanoma
UO-31 renal = tested on: UO-31 renal
A498 renal = tested on: A498 renal
NCI/ADR-RES ovarian = tested on: NCI/ADR-RES ovarian
KM12 colon = tested on: KM12 colon
HCC-2998 colon = tested on: HCC-2998 colon
HOP-92 NSCLC = tested on: HOP-92 NSCLC
OVCAR-4 ovarian = tested on: OVCAR-4 ovarian
MOLT-4 leukemia = tested on: MOLT-4 leukemia
PC-3 prostate = tested on: PC-3 prostate
M14 melanoma = tested on: M14 melanoma

For `[Cl][Ru].c1ccc(-c2cccc(-c3ccccn3)n2)nc1.c1ccc(-c2ccnc3c2ccc2c(-c4ccccc4)ccnc23)cc1`, which GI50 (UACC-62 melanoma) is on record?
The GI50 was 1.97 µM.

And the TGI (UACC-62 melanoma)?
The TGI was 5.53 µM.

And the GI50 (SK-MEL-5 melanoma)?
The GI50 was 6.55 µM.

And the TGI (SK-MEL-5 melanoma)?
Its TGI is 44.4 µM.

What about the GI50 (SF-295 CNS) of the same compound?
The GI50 was 13.8 µM.

And the TGI (SF-295 CNS)?
The TGI was 56.7 µM.

And the GI50 (HCT-15 colon)?
Its GI50 is 22.4 µM.

What about the TGI (HCT-15 colon) of the same compound?
The TGI was over 100 µM.

What about the GI50 (SR leukemia) of the same compound?
Its GI50 is 2.65 µM.

What about the TGI (SR leukemia) of the same compound?
The TGI was 17.9 µM.

And the GI50 (EKVX NSCLC)?
The GI50 was 3.22 µM.

What about the TGI (EKVX NSCLC) of the same compound?
Its TGI is 23.3 µM.

What about the GI50 (IGROV1 ovarian) of the same compound?
The GI50 was 2.93 µM.

What about the TGI (IGROV1 ovarian) of the same compound?
The TGI was 20.7 µM.

And the GI50 (OVCAR-8 ovarian)?
Its GI50 is 5.35 µM.

And the TGI (OVCAR-8 ovarian)?
Its TGI is 59 µM.

And the GI50 (CAKI-1 renal)?
The GI50 was 13.8 µM.

And the TGI (CAKI-1 renal)?
The TGI was 36.6 µM.

And the GI50 (CCRF-CEM leukemia)?
The GI50 was 4.5 µM.

And the TGI (CCRF-CEM leukemia)?
Its TGI is over 100 µM.

And the GI50 (T-47D breast)?
The GI50 was 2.32 µM.

What about the TGI (T-47D breast) of the same compound?
Its TGI is 8.35 µM.

And the GI50 (NCI-H522 lung)?
Its GI50 is 2.12 µM.

And the TGI (NCI-H522 lung)?
Its TGI is 6.75 µM.

And the GI50 (SF-268 CNS)?
The GI50 was 4.17 µM.

What about the TGI (SF-268 CNS) of the same compound?
Its TGI is over 100 µM.

And the GI50 (MALME-3M melanoma)?
The GI50 was 2.42 µM.

What about the TGI (MALME-3M melanoma) of the same compound?
Its TGI is 7.52 µM.

And the GI50 (MDA-MB-231 breast)?
The GI50 was 3 µM.

What about the TGI (MDA-MB-231 breast) of the same compound?
The TGI was 12.5 µM.

And the GI50 (U251 CNS)?
The GI50 was 2.69 µM.

And the TGI (U251 CNS)?
The TGI was over 100 µM.

And the GI50 (HL-60(TB) leukemia)?
The GI50 was 1.62 µM.

What about the TGI (HL-60(TB) leukemia) of the same compound?
The TGI was 4.03 µM.

What about the GI50 (HCT-116 colon) of the same compound?
Its GI50 is 3.16 µM.

And the TGI (HCT-116 colon)?
The TGI was over 100 µM.

What about the GI50 (786-0 renal) of the same compound?
The GI50 was 13.2 µM.

And the TGI (786-0 renal)?
Its TGI is 62.7 µM.

What about the GI50 (NCI-H226 lung) of the same compound?
Its GI50 is 4.66 µM.

What about the TGI (NCI-H226 lung) of the same compound?
Its TGI is 25.7 µM.

What about the GI50 (SK-OV-3 ovarian) of the same compound?
The GI50 was 2.3 µM.

What about the TGI (SK-OV-3 ovarian) of the same compound?
Its TGI is 7 µM.

And the GI50 (TK-10 renal)?
The GI50 was 11.8 µM.

And the TGI (TK-10 renal)?
The TGI was 37.3 µM.

What about the GI50 (SW-620 colon) of the same compound?
Its GI50 is 4.14 µM.

And the TGI (SW-620 colon)?
The TGI was 80.5 µM.

What about the GI50 (SK-MEL-2 melanoma) of the same compound?
Its GI50 is 1.96 µM.

What about the TGI (SK-MEL-2 melanoma) of the same compound?
Its TGI is 5.13 µM.

What about the GI50 (DU-145 prostate) of the same compound?
The GI50 was 4.84 µM.

And the TGI (DU-145 prostate)?
Its TGI is over 100 µM.

What about the GI50 (A549 NSCLC) of the same compound?
The GI50 was 4.06 µM.

What about the TGI (A549 NSCLC) of the same compound?
Its TGI is 75.4 µM.

And the GI50 (ACHN renal)?
The GI50 was 21.2 µM.

And the TGI (ACHN renal)?
Its TGI is over 100 µM.

What about the GI50 (SN12C renal) of the same compound?
The GI50 was 2.87 µM.

And the TGI (SN12C renal)?
Its TGI is 10.8 µM.

And the GI50 (RXF 393 renal)?
Its GI50 is 3.43 µM.

And the TGI (RXF 393 renal)?
Its TGI is 19 µM.

What about the GI50 (NCI-H460 lung) of the same compound?
Its GI50 is 3.75 µM.

And the TGI (NCI-H460 lung)?
Its TGI is over 100 µM.

What about the GI50 (OVCAR-5 ovarian) of the same compound?
The GI50 was 4.01 µM.

And the TGI (OVCAR-5 ovarian)?
Its TGI is 19.5 µM.

And the GI50 (OVCAR-3 ovarian)?
The GI50 was 3.36 µM.

What about the TGI (OVCAR-3 ovarian) of the same compound?
Its TGI is over 100 µM.

What about the GI50 (BT-549 breast) of the same compound?
Its GI50 is 2.26 µM.

What about the TGI (BT-549 breast) of the same compound?
The TGI was 6.46 µM.

What about the GI50 (HT29 colon) of the same compound?
Its GI50 is 3.08 µM.

What about the TGI (HT29 colon) of the same compound?
The TGI was 12 µM.

And the GI50 (SK-MEL-28 melanoma)?
Its GI50 is 3.01 µM.

What about the TGI (SK-MEL-28 melanoma) of the same compound?
The TGI was 18 µM.

What about the GI50 (SNB-75 CNS) of the same compound?
Its GI50 is 2.37 µM.

And the TGI (SNB-75 CNS)?
The TGI was 9.73 µM.

And the GI50 (K-562 leukemia)?
The GI50 was 1.67 µM.

And the TGI (K-562 leukemia)?
The TGI was over 100 µM.

What about the GI50 (SF-539 CNS) of the same compound?
The GI50 was 2.93 µM.

And the TGI (SF-539 CNS)?
The TGI was 19.9 µM.

And the GI50 (HS 578T breast)?
The GI50 was 2.6 µM.

What about the TGI (HS 578T breast) of the same compound?
Its TGI is 8.63 µM.

And the GI50 (SNB-19 CNS)?
Its GI50 is 3.33 µM.

What about the TGI (SNB-19 CNS) of the same compound?
Its TGI is 21.7 µM.

What about the GI50 (HOP-62 NSCLC) of the same compound?
The GI50 was 4.11 µM.

And the TGI (HOP-62 NSCLC)?
Its TGI is 27.9 µM.

And the GI50 (MCF7 breast)?
Its GI50 is 2.41 µM.

And the TGI (MCF7 breast)?
The TGI was 13.4 µM.

And the GI50 (MDA-MB-435)?
Its GI50 is 2.77 µM.

What about the TGI (MDA-MB-435) of the same compound?
Its TGI is 11 µM.

What about the GI50 (UACC-257 melanoma) of the same compound?
The GI50 was 2.7 µM.

And the TGI (UACC-257 melanoma)?
The TGI was 14.2 µM.

And the GI50 (LOX IMVI melanoma)?
Its GI50 is 3.04 µM.

What about the TGI (LOX IMVI melanoma) of the same compound?
The TGI was over 100 µM.

What about the GI50 (UO-31 renal) of the same compound?
Its GI50 is 6.31 µM.

And the TGI (UO-31 renal)?
Its TGI is over 100 µM.

And the GI50 (A498 renal)?
The GI50 was 15.1 µM.

And the TGI (A498 renal)?
The TGI was 46.6 µM.

And the GI50 (NCI/ADR-RES ovarian)?
Its GI50 is 10 µM.

What about the TGI (NCI/ADR-RES ovarian) of the same compound?
The TGI was over 100 µM.

What about the GI50 (KM12 colon) of the same compound?
The GI50 was 3.04 µM.

What about the TGI (KM12 colon) of the same compound?
Its TGI is over 100 µM.

What about the TGI (HCC-2998 colon) of the same compound?
Its TGI is 20.1 µM.

And the GI50 (HOP-92 NSCLC)?
The GI50 was 1.09 µM.

What about the TGI (HOP-92 NSCLC) of the same compound?
The TGI was 3.64 µM.

What about the GI50 (OVCAR-4 ovarian) of the same compound?
The GI50 was 3.13 µM.

What about the TGI (OVCAR-4 ovarian) of the same compound?
Its TGI is 26.7 µM.

And the GI50 (MOLT-4 leukemia)?
Its GI50 is 3.51 µM.

And the TGI (MOLT-4 leukemia)?
Its TGI is 24.5 µM.

And the GI50 (PC-3 prostate)?
The GI50 was 2.63 µM.

What about the TGI (PC-3 prostate) of the same compound?
The TGI was 10.6 µM.

What about the GI50 (M14 melanoma) of the same compound?
Its GI50 is 4.82 µM.

And the TGI (M14 melanoma)?
Its TGI is 34.3 µM.
